In DBAASP:
Converted amounts (≈) assume the structure as drawn. “And” between values parts separate entries of the source, which are not always exact repeats. Equal values may be shown once. Blank lines part the entries; values can stand above or below the compound they belong to.

Legend:
Assay in all cases: ≥ marks a high value that may be exact or a test limit, other limits are often not marked, values filed in µg/mL are converted to µM
[1] = system: Bacillus subtilis ATCC 9372
[2] = system: Pseudomonas aeruginosa ATCC 9027
[3] = system: Proteus vulgaris NCTC 4635
[4] = system: Escherichia coli ATCC 8739
[5] = system: Staphylococcus aureus ATCC 6538
[6] = system: Staphylococcus aureus ATCC 33591
[7] = system: Staphylococcus aureus S015
[8] = system: Candida albicans NCPF 1467
[9] = system: Staphylococcus aureus NCTC 10788
[10] = system: Enterococcus faecalis ATCC 29212
[11] = system: Escherichia coli NCTC 10418
[12] = system: Micrococcus luteus AB93113
[13] = system: Escherichia coli ATCC 35218
[14] = system: Staphylococcus aureus P1369
[15] = system: Staphylococcus aureus AB94004
[16] = system: Escherichia coli ATCC 25922
[17] = system: Acinetobacter baumannii ATCC 19606
[18] = system: Klebsiella pneumoniae ATCC 700603
[19] = system: Staphylococcus aureus ATCC 25923
[20] = system: Staphylococcus aureus ATCC 29213
[21] = system: Staphylococcus aureus P1386
[22] = system: Staphylococcus epidermidis P1389
[23] = system: Bacillus subtilis AB91021
Candida albicans AY93025 = system: Candida albicans AY93025
Escherichia coli AB94012 = system: Escherichia coli AB94012
[24] = system: Pseudomonas aeruginosa AB93066
Acinetobacter baumannii = system: Acinetobacter baumannii
[25] = system: Pseudomonas aeruginosa ATCC 27853
[26] = system: Staphylococcus aureus P1374
[27] = system: Bacillus thuringiensis AB92037
Nocardia asteroides = system: Nocardia asteroides
[28] = system: Staphylococcus aureus ATCC 2592
Serratia marcescens = system: Serratia marcescens
Klebsiella pneumoniae = system: Klebsiella pneumoniae
Escherichia coli = system: Escherichia coli
Bacillus anthracis = system: Bacillus anthracis
Staphylococcus aureus = system: Staphylococcus aureus
Bacillus cereus = system: Bacillus cereus
[29] = system: Candida albicans ATCC 20032
[30] = system: Staphylococcus aureus ATCC 43300
Escherichia coli ML-35p = system: Escherichia coli ML-35p
[31] = system: Pseudomonas aeruginosa 08031014
[32] = system: Pseudomonas aeruginosa PAO1
[33] = system: Bacillus subtilis ATCC 6633

SMILES: CC[C@H](C)[C@H](NC(=O)[C@@H](NC(=O)[C@H](CO)NC(=O)[C@H](C)NC(=O)[C@@H](NC(=O)[C@H](CCCCN)NC(=O)[C@H](CCCCN)NC(=O)[C@@H](NC(=O)[C@@H](NC(=O)[C@@H](N)CC(=O)O)C(C)C)[C@@H](C)CC)C(C)C)C(C)C)C(=O)NCC(=O)O [DVIKKVASVIG]
MIC [1]: ≥ 908 µM | MIC [2]: > 908 µM | MIC [3]: ≥ 908 µM | MIC [4]: ≥ 908 µM | MIC [5]: > 908 µM

SMILES: CC[C@H](C)[C@H](NC(=O)[C@H](CC(C)C)NC(=O)CNC(=O)[C@@H]1CCCN1C(=O)[C@@H](NC(=O)[C@H](CCSC)NC(=O)CNC(=O)[C@H](CC(C)C)NC(=O)[C@@H](N)Cc1ccccc1)[C@@H](C)CC)C(=O)NCC(=O)NCC(=O)N[C@@H](CC(C)C)C(=O)N[C@H](C(=O)N[C@@H](CO)C(=O)N[C@@H](C)C(=O)N[C@@H](Cc1ccccc1)C(=O)N[C@@H](CCCCN)C(=O)O)[C@@H](C)CC [FLGMIPGLIGGLISAFK]
MIC [6]: 9.98 µM (≈ 17.3 µg/mL) | MIC [7]: 9.98 µM (≈ 17.3 µg/mL) | MIC [8]: 10 µM (≈ 17.3 µg/mL) | MIC [9]: 5 µM (≈ 8.67 µg/mL) | MIC [10]: 39.9 µM (≈ 69.2 µg/mL) | MIC [11]: ≥ 320 µM

SMILES: CC[C@H](C)[C@H](NC(=O)[C@H](C)NC(=O)CNC(=O)[C@@H]1CCCN1C(=O)[C@@H](NC(=O)[C@H](CC(C)C)NC(=O)CNC(=O)[C@H](Cc1c[nH]c2ccccc12)NC(=O)[C@H](CC(C)C)NC(=O)[C@@H](N)Cc1ccccc1)[C@@H](C)CC)C(=O)N[C@@H](CO)C(=O)N[C@@H](C)C(=O)N[C@H](C(=O)N[C@H](C(=O)N[C@@H](CO)C(=O)N[C@@H](CC(C)C)C(=O)N[C@H](C(=O)N[C@@H](CCCCN)C(=O)N[C@@H](CCCCN)C(N)=O)[C@@H](C)CC)[C@@H](C)O)C(C)C [FLWGLIPGAISAVTSLIKK]
MIC [12]: 2.48 µM (≈ 5 µg/mL) | MIC [13]: 31.8 µM (≈ 64 µg/mL) | MIC [14]: 4.96 µM (≈ 10 µg/mL) | MIC [15]: 2.48 µM (≈ 5 µg/mL) | MIC [16]: 31.8 µM (≈ 64 µg/mL) | MIC [17]: 9.93 µM and 7.94 µM | MIC [18]: > 31.8 µM | MIC [19]: 15.9 µM (≈ 32 µg/mL) | MIC [20]: 7.94 µM (≈ 16 µg/mL) | MIC [21]: 4.96 µM (≈ 10 µg/mL) | MIC [22]: 4.96 µM (≈ 10 µg/mL) | MIC [23]: 4.96 µM (≈ 10 µg/mL) | MIC (Candida albicans AY93025): 9.93 µM (≈ 20 µg/mL) | MIC (Escherichia coli AB94012): ≥ 49.6 µM | MIC [24]: ≥ 49.6 µM | MIC (Acinetobacter baumannii): 14.4 µM (≈ 29.1 µg/mL) | MIC [25]: > 31.8 µM | MIC [10]: 31.8 µM (≈ 64 µg/mL) | MIC [26]: 4.96 µM (≈ 10 µg/mL) | MIC [27]: 4.96 µM (≈ 10 µg/mL)

SMILES: CC[C@H](C)[C@H](NC(=O)[C@H](Cc1ccccc1)NC(=O)[C@@H](NC(=O)[C@@H](N)CCCCN)C(C)C)C(=O)N[C@@H](C)C(=O)N[C@H](C(=O)N[C@@H](CC(C)C)C(=O)N[C@H](C(=O)N[C@H](C(=O)N[C@@H](CO)C(=O)N[C@@H](CO)C(=O)N[C@@H](Cc1ccccc1)C(=O)N[C@@H](CC(C)C)C(=O)N[C@@H](CC(C)C)C(=O)N[C@@H](C)C(=O)N[C@@H](CCCCN)C(=O)N1CCC[C@H]1C(=O)N1CCC[C@H]1C(=O)N[C@@H](CCCN=C(N)N)C(=O)N[C@H](C(=O)O)C(C)C)C(C)C)C(C)C)[C@@H](C)O [KVFIATLVVSSFLLAKPPRV]
MIC (Escherichia coli): > 117 µM | MIC (Bacillus anthracis): ≥ 117 µM | MIC (Staphylococcus aureus): > 117 µM | MIC (Bacillus cereus): ≥ 117 µM

Next, values leading:

MIC (Nocardia asteroides): 5.64 µM (≈ 9.37 µg/mL) | MIC [16]: > 60.1 µM | MIC [28]: 5.64 µM (≈ 9.37 µg/mL) | MIC (Serratia marcescens): ≥ 60.1 µM | MIC (Klebsiella pneumoniae): > 60.1 µM
SMILES: CC[C@H](C)[C@@H]1NC(=O)[C@H](CCCCN)NC(=O)[C@@H](NC(=O)[C@H](CCSC)NC(=O)[C@@H](NC(=O)[C@H](CC(C)C)NC(=O)[C@@H]2CCCN2C(=O)[C@H](CC(C)C)NC(=O)[C@@H](NC(=O)[C@@H](N)Cc2ccccc2)C(C)C)C(C)C)CSSC[C@@H](C(=O)O)NC(=O)[C@H](CCCCN)NC(=O)[C@H](CCCN=C(N)N)NC(=O)[C@H](CC(C)C)NC1=O [FVLPLVMCKILRKC]

MIC [29]: 8.48 µM (≈ 18.8 µg/mL) | MIC (Escherichia coli): 24 µM (≈ 53 µg/mL) | MIC [16]: 17 µM (≈ 37.5 µg/mL) | MIC [19]: 4.24 µM (≈ 9.38 µg/mL) | MIC [30]: 4.24 µM (≈ 9.38 µg/mL) | MIC (Escherichia coli ML-35p): 17 µM (≈ 37.5 µg/mL) | MIC [25]: 8.48 µM (≈ 18.8 µg/mL) | MIC [31]: 17 µM (≈ 37.5 µg/mL) | MIC [32]: 4.24 µM (≈ 9.38 µg/mL) | MIC [33]: ≥ 45.3 µM
SMILES: CC[C@H](C)[C@H](NC(=O)[C@H](CCCCN)NC(=O)[C@@H](NC(=O)[C@H](Cc1c[nH]c2ccccc12)NC(=O)[C@H](CS)NC(=O)[C@H](CCCNC(=N)N)NC(=O)[C@@H]1CCCN1C(=O)[C@@H](N)CCCNC(=N)N)[C@@H](C)CC)C(=O)N[C@@H](CCCCN)C(=O)N[C@@H](Cc1ccccc1)C(=O)N[C@@H](CCCNC(=N)N)C(=O)N[C@@H](CS)C(=O)N[C@@H](CCCCN)C(=O)N[C@@H](CO)C(=O)N[C@@H](CC(C)C)C(=O)N[C@@H](CCCCN)C(=O)N[C@@H](Cc1ccccc1)C(=O)O [RPRCWIKIKFRCKSLKF]
